Data reported in patent US20240043859A1, “HERBICIDE-RESISTANT PROTEIN, AND GENE AND USE THEREOF” (QINGDAO KINGAGROOT CHEMICAL COMPOUND CO., LTD., priority 2020, published 2024).
“Also recorded” adds a separate entry of the source.

How the values were obtained:
AAD-12 = molecular target: T1, AAD-12 (Delftia acidovorans, UniProt P83309); assay: Degradation activities of AAD-12 on phenoxy acetic acid herbicides by spectrophotometry (A510); type: biochemical, Comamonas acidovorans; details: for A510 of reaction group, Reaction 1 / A510 of reaction group, Reaction 2 / A510 of reaction group, Reaction 3: AAD-12 enzyme with substrate, chromogenic detection at 510 nm; for Increased A510: reaction group versus blank group
T1 construct: made in house; host or cells: E. coli BL21(DE3)
Procedure: As reported in literature (Fukomori and Flausinger, Purification and characterization of 2,4-dichlorophenoxyacetate/alpha-ketoglutarate dioxygenase Journal of Biological Chemistry (1993) 268(32): 24311-24317), the constructed expression vector pET15b-AAD12 was transformed into E. coli BL21(DE3) and induced by IPTG for expression. After cells were collected and lysed, Ni-NTA column was used for purification and the purity of the protein was analyzed by SDS-PAGE.
Since phenolic products were produced by AAD-12-substrate catalytic reaction, 4-aminoantipyrine and potassium ferricyanide could be used to develop color with the products in an alkaline environment to generate red products with absorption at 510 nm, and the relevant parameters were directly read with a microplate reader.

Arabidopsis thaliana [1] = assay: Herbicide resistance of transgenic Arabidopsis thaliana seedlings on plate medium (root growth); type: in vivo; details: plate medium: 2,4-D 0.3 μmol; 2,4-DB sodium 0.7 μmol; MCPA 0.1 μmol
Procedure: Expression in Arabidopsis thaliana was regulated by its AtUbi10 Arabidopsis thaliana ubiquitin promoter and the MAS (mannopine synthase) terminator. Hygromycin resistance gene (HygR=hpt) served as the selection marker.
Preparation of Agrobacterium infection solution: An activated Agrobacterium (GV3101) monoclone was picked and inoculated in 30 ml YEP liquid medium [yeast powder 10 g/L, tryptone 10 g/L, NaCl 5 g/L, 25 mg/L Rifampicin and 50 mg/L Kanamycin], shaking-cultured at 200 rmp/min, 28° C. overnight until the OD600 was about 1.0-1.5, then centrifuged at 6000 rmp/min for 10 min to collect the bacteria, and the supernatant was discarded. Arabidopsis thaliana infection solution (sucrose 50 g/L, Silwet L-77 300 μL/L, no need to adjust pH) was used to resuspend the cells to OD600=0.8 for later use.
Genetic transformation of Arabidopsis thaliana by flower dipping: Before transformation of Arabidopsis thaliana plants, attentions were paid to whether the plants were growing well, the inflorescences were abundant, and no stress response occurred. The first transformation was performed when plants were about 20 cm high. Plants could be properly watered if the soil was dry. The grown siliques were cut off with scissors the day before transformation. The inflorescences of the plants to be transformed were soaked in the above-mentioned Agrobacterium solution for 30 seconds to 1 minute, which was stirred gently during the period. And a layer of liquid film should appear on the infiltrated plant. The transformed plants were cultured in a dark environment for 24 hours, and then taken out and grown in a normal light environment. A second transformation could be performed in the same way a week later. […]

Arabidopsis thaliana [2] = assay: Spray testing of T2 generation transgenic Arabidopsis thaliana; type: in vivo; details: 100 g/ha foliage spray, 10 days after spraying
Excerpt: The T2 generation seedlings of four representative transformants, pQY2309, pQY2310, pQY2311 and pQY2313, were selected for further spray testing. Four lines were randomly selected from the T2 generation generated by transformation of each vector, and respectively foliage-sprayed with 2,4-D (100 g/ha), MCPA (100 g/ha) and 2,4-DB sodium (100 g/ha) when Arabidopsis thaliana seeds germinated, transplanted and the seedlings grew to 5-7 leaf. Non-transgenic wild-type Col-0 served as a negative control. The level of resistance was assessed 10 days after spraying.

T1 sequence (P83309 2-292, added parts left off): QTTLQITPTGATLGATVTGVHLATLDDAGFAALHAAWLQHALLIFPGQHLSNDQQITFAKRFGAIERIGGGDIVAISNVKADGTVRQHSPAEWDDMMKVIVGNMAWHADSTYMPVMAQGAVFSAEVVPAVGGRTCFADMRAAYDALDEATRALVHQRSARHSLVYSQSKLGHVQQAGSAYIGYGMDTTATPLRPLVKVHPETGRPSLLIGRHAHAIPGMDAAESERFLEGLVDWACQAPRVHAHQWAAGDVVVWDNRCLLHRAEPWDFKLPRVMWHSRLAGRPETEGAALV

| SMILES | Degradation activity of expressed AAD-12 enzyme on the substrate (AAD-12) | A510 of reaction group, Reaction 1 (AAD-12) | A510 of reaction group, Reaction 2 (AAD-12) | A510 of reaction group, Reaction 3 (AAD-12) | Increased A510 (AAD-12) | Effect of the herbicide on seminal roots of wild-type Col-0 (Arabidopsis thaliana [1]) | Effect of the herbicide spray on wild-type Col-0 (Arabidopsis thaliana [2]) |
| --- | --- | --- | --- | --- | --- | --- | --- |
| CC(C)CCCCCOC(=O)COc1ccc(Cl)cc1Cl [2,4-D isooctyl ester] | degradation activities | 0.1570 | 0.1578 | 0.1497 | +0.019 | – | – |
| O=C([O-])CCCOc1ccc(Cl)cc1Cl.[Na+] [2,4-DB sodium, reference compound] | – | – | – | – | – | seminal roots are inhibited; also recorded: seminal roots are not able to grow | all or almost all non-transgenic wild-type Arabidopsis thaliana died; also recorded: severely injured |
| O=C(O)CCCOc1ccc(Cl)cc1Cl [2,4-DB, 4-(2,4-dichlorophenoxy)butanoic acid] | degradation activities | 0.1373 | 0.1326 | 0.1345 | +0.017 | – | – |
| Cc1cc(Cl)ccc1OCC(=O)O [MCPA, (4-chloro-2-methylphenoxy)acetic acid] | degradation activities | 0.1998 | 0.2076 | – | +0.035 | seminal roots are inhibited; also recorded: seminal roots are not able to grow | all or almost all non-transgenic wild-type Arabidopsis thaliana died; also recorded: all die |
